Reference: US9877978B2, “Compositions comprising NDGA derivatives and sorafenib and their use in treatment of cancer” (THE JOHNS HOPKINS UNIVERSITY, priority 2012, dated 2018)
Like-named read-outs stand apart in the source and are kept apart here.

How the values were obtained:
[1] = test system: caspase activation (procaspases 9, 4 and 7, caspase 3) in AsPc-1 human pancreatic carcinoma cells; test: Western immunoblot analysis of caspase activation; assay type: cell-based; settings: for caspase activation (procaspase cleavage): 80 μM M4N, 40 μM sorafenib (FIG. 17); for caspase 3 activation: after 18 h of treatment
Experimental: Western immunoblot analysis. Treated and control cells were washed with PBS and suspended in RIPA buffer (150 mM NaCl, 50 mM Tris-HCL (pH8.0), 0.1% SDS, 1% NP40, and 0.5% deoxycholate) supplemented with protease inhibitor cocktail. After a 20 min incubation on ice, the suspension was centrifuged to clear the solubilized proteins. Bradford protein assay were performed and samples containing equivalent amounts of protein were resolved by standard SDS-polyacrylamide gel electrophoresis and transferred to nirocellulose membrane. The membranes were blocked with skim milk, and incubated with primary antibodies at 4° C. overnight and then with secondary antibody conjugated with horse radish peroxidase at room temperature for 1 h. The signals were detected by western blot chemiluminescence detection reagent.

[2] = test system: HepG2 human HCC cells; test: MTT cytotoxicity assay with median-effect / combination index analysis; assay type: cell-based; settings: for DRI value at ED75 / DRI value at ED90 / DRI value at ED95: single agent vs combination; for IC50: Homo sapiens
Experimental: Cytotoxicity assay. […] M4N was used at concentrations between 0 and 80 μM. For the combination of M4N and sorafenib a constant molar ratio of 2:1 (M4N:sorafenib) was used. Twenty four hours after drug addition, cytotoxicity was assessed with the MTT assay with […] measured with a Power Wave 200 microplate reader.
Evaluation of drug interactions. The combination index (CI) isobologram method of Chou and Talalay, which is based on the median-effect principle, was used to calculate synergism or antagonism for the combined drug effects. Dose-effect curves for the two drugs, singly and in combination, in serially diluted concentrations were plotted using the median-effect equation and plot and the CI equation and plot. CI values at different effect and dose levels and isobolograms were generated automatically using the computer software CompuSyn. With this method, additive, synergistic, or antagonistic effects are indicated by CI values of 1, <1, and >1, respectively. Comparison of the ratio of doses required to reach a given effect level for each single drug and the drugs in combination was used to determine the dose-reduction.

[3] = HepG2, concurrent administration of M4N

Structure (SMILES): COc1ccc(C[C@@H](C)[C@@H](C)Cc2ccc(OC)c(OC)c2)cc1OC [M4N, tetra-O-methyl nordihydroguaiaretic acid]
- caspase activation (procaspase cleavage) [1]: little effect on caspase activation
- caspase 3 activation [1]: neither drug nor their combination had an effect
- DRI value at ED75 ([2]; HepG2, 24 h): 3.15
- DRI value at ED90 ([2]; HepG2, 24 h): 1.75
- DRI value at ED95 ([2]; HepG2, 24 h): 1.17
- IC50 ([2]; HepG2, 24-Hour Treatment, combination at constant molar ratio 2:1 (M4N:sorafenib), read-out: Dm, median effect dose (concentration that inhibits cell growth by 50%)): 283 µM

Structure (SMILES): CNC(=O)c1cc(Oc2ccc(NC(=O)Nc3ccc(Cl)c(C(F)(F)F)c3)cc2)ccn1 [sorafenib]
- caspase activation (procaspase cleavage) [1]: decreased levels of procaspases 9, 4 and 7
- caspase 3 activation [1]: neither drug nor their combination had an effect
- DRI value at ED75 ([2]; HepG2, 24 h): 92815.6
- DRI value at ED90 ([2]; HepG2, 24 h): 489945.0
- DRI value at ED95 ([2]; HepG2, 24 h): 1519041
- DRI: decrease of concentration necessary to inhibit growth of 50% of cells (ED50) [2, 3]: 17,583.1 fold
- DRI: decrease of concentration necessary to inhibit growth of 75% of cells (ED75) [2, 3]: 92,815.6 fold
- DRI: decrease of concentration necessary to inhibit growth of 95% of cells (ED95) [2, 3]: 151,9041 fold
- IC50 ([2]; HepG2, after 24 h of treatment (FIG. 4), read-out: IC50 against HepG2 cells): ~30 µM
- cytotoxic effect ([2]; sorafenib 20 μM alone, HepG2, 24 h): ~20%
